Results taken from publication PMC10783051 (Microbiology Spectrum, 2023).

System: Streptomyces venezuelae ATCC 10712
Assay: In planta co-inoculation on tomato roots, UPLC-MS of rhizosphere extracts
Details: tomato roots on Hoagland agar, 7 days at 22°C, UPLC-MS of agar near the roots, four biological replicates
Description: For the in planta studies, tomato seeds (Solanum lycopersicum var. Moneymaker) were sterilized following the protocol described by ([26]). Briefly, tomato seeds were primarily sterilized in 70% ethanol (vol/vol) by gently shaking for 2 min. Further, the ethanol was removed and the seeds were added to 50 mL of the sterilization solution [4.5 mL of bleach containing 9.5% (vol/vol) of active chlorine, 0.01 g of Tween 80, and 45.5 mL of sterile water] and gently shaken for 10 min. Seeds were thereafter washed 10 times with water to eliminate sterilization solution residues. […]
All UPLC-MS analyses were performed using an Agilent 1290 Infinity II coupled with a diode array detector and a mass detector (Jet Stream ESI-Q-TOF 6530) in positive mode with the parameters set up as follows: capillary voltage of 3.5 kV, nebulizer pressure of 35 lb/in^2, drying gas of 8 L/min, drying gas temperature of 300°C, flow rate of sheath gas of 11 L/min, sheath gas temperature of 350°C, fragmentor voltage of 175 V, skimmer voltage of 65 V, and octopole radiofrequency of 750 V. Accurate mass spectra were recorded in the m/z range of 300–1,700. […]

iturin was tested. Which “linear forms in rhizosphere extracts upon co-inoculation of Bv with Sv” value did it give?
The value was “high proportion of linear”.
